Counter-ions that a name gives are not always drawn.
Key:
obese, stressed patients [1] = assay: CES-D test of current levels of emotional distress in patients; type: in vivo, human
Source text: (§1) A subgroup of obese individuals is identified, which individuals describe themselves as being unable to control their eating and who attempt to continue on a weight-reducing diet when experiencing emotional distress. […]
(§2) Objective measurements of emotional distress are made in some patients using the CES-D (Center for […] Depression Form) test, which measures current levels of emotional distress (Radloff, et al., The CES-D Scale: A Self Report Depression Scale for Research in the General Population Applied Psychological Measurement 1: 385-401, 1977); and the POMS (Profile of Mood States test, that assesses tension, depression, anger and confusion (McNair, et al., Profile of Mood States Manual;San Diego: Educational and Industrial Testing Service, 1971); both of these references are hereby incorporated by reference in their entirety. These tests are also given monthly during the treatment period. At the same time, patients also complete questionnaires that ask the patients to rate their appetite and hunger, and also to rate their tendency to eat in response to a variety of emotional and stressful triggers. The patients are also weighed monthly.

obese, stressed patients [2] = assay: questionnaire rating appetite and hunger; type: in vivo, human; design: Appetite and Cravings: scale not given here
Source text: as §1, §2

obese, stressed patients [3] = assay: questionnaire rating tendency to eat in response to emotional and stressful triggers; type: in vivo, human; design: Emotional Triggers: scale not given here
Source text: as §1, §2

Sprague-Dawley rats = assay: stress related eating (clamp tightened on the tail) in rats; type: in vivo, rat; conditions: for Stress Eating, relative amount with 0 mg/kg as 100% / Stressed Rats, average amount of food consumed per rat / Stress Eating / Control Rats, average amount of food consumed per rat: 8 hours; for Stressed Rats, average amount of food consumed per rat: clamp tightened on the tail; for Stress Eating: stressed minus control rats; for Control Rats, average amount of food consumed per rat: untightened clamp
Protocol: The effect of the hydrochloride salt of 6-chloro-2-(1-piperazinyl)pyrazine (MK-212, which is obtained from Merck & Co., Inc. Whitehouse Station, N.J.), on stress related eating in animals is determined through the observation of the effect of experimental compounds on stress-related eating in adult Sprague-Dawley rats. These rats are widely used as a recognized animal model useful in predicting the effect of serotoninergic drugs in humans.
In these experiments, a group of 5 adult female and 5 adult male Sprague-Dawley rats weighing between 200 and 250 grams each are used as control animals. An untightened clamp is placed on the tail of these animals. The untightened clamp provides the unstressed condition. Each animal is placed in an individual cage and allowed free access to food. The amount of food consumed is determined at 2, 4 and 8 hours after the initiation of the trial. A similar group of rats has a clamp tightened on the tail. The amount of food consumed by this stressed group of rats is shown in the 0 mg/kg column. […] similar groups of stressed rats are injected with 1, 2, 5, or 10 mg/kg body weight of MK-212 one hour before initiation of the experiment.
The relative amounts of stress eating with the amount at 0 mg/kg MK-212 as 100% is also shown in the Stress Eating row. The preferred daily dose of MK-212 is about 1 mg/kg body weight to about 10 mg/kg body weight.

[4] = 1 mg/kg injected one hour before
[5] = 2 mg/kg injected one hour before
[6] = 5 mg/kg injected one hour before
[7] = 10 mg/kg injected one hour before
[8] = patient nine, 100 mg/day in divided doses, Month 1, baseline 9
[9] = patient nine, 100 mg/day in divided doses, Month 2, baseline 9
[10] = patient nine, 100 mg/day in divided doses, Month 3, baseline 9
[11] = patient nine, 100 mg/day in divided doses, Month 4, baseline 9

## CCN[C@@H](C)Cc1cccc(C(F)(F)F)c1 [dexfenfluramine hydrochloride]
obese, stressed patients [1]; patient eleven, 30 mg/day, Month 1, baseline 19
  Mood Scores CES-D: 5
obese, stressed patients [1]; patient eleven, 30 mg/day, Month 2, baseline 19
  Mood Scores CES-D: 2
obese, stressed patients [1]; patient eleven, 30 mg/day, Month 3, baseline 19
  Mood Scores CES-D: 3
obese, stressed patients [2]; patient eleven, 30 mg/day, Month 1, baseline 9
  Appetite and Cravings: 6
obese, stressed patients [2]; patient eleven, 30 mg/day, Month 2, baseline 9
  Appetite and Cravings: 8
obese, stressed patients [2]; patient eleven, 30 mg/day, Month 3, baseline 9
  Appetite and Cravings: 3
obese, stressed patients [2]; patient eleven, 30 mg/day, Month 4, baseline 9
  Appetite and Cravings: 5
obese, stressed patients [3]; patient eleven, 30 mg/day, Month 1, baseline 30
  Emotional Triggers: 12
obese, stressed patients [3]; patient eleven, 30 mg/day, Month 2, baseline 30
  Emotional Triggers: 13
obese, stressed patients [3]; patient eleven, 30 mg/day, Month 3, baseline 30
  Emotional Triggers: 5

## Clc1cncc(N2CCNCC2)n1 [MK-212, 6-chloro-2-(1-piperazinyl)pyrazine]
Sprague-Dawley rats; 1 mg/kg
  Stress Eating, relative amount with 0 mg/kg as 100%: (83%)
  Stress Eating: 2.82 g
Sprague-Dawley rats; 2 mg/kg
  Stress Eating, relative amount with 0 mg/kg as 100%: (76%)
  Stress Eating: 2.58 g
Sprague-Dawley rats; 5 mg/kg
  Stress Eating, relative amount with 0 mg/kg as 100%: (25%)
  Stress Eating: 0.85 g
Sprague-Dawley rats; 10 mg/kg
  Stress Eating, relative amount with 0 mg/kg as 100%: (0%)
  Stress Eating: 0.0 g
Sprague-Dawley rats; [4]
  Stressed Rats, average amount of food consumed per rat: 4.14 g
  Control Rats, average amount of food consumed per rat: 1.32 g
Sprague-Dawley rats; [5]
  Stressed Rats, average amount of food consumed per rat: 3.78 g
  Control Rats, average amount of food consumed per rat: 1.20 g
Sprague-Dawley rats; [6]
  Stressed Rats, average amount of food consumed per rat: 2.01 g
  Control Rats, average amount of food consumed per rat: 1.16 g
Sprague-Dawley rats; [7]
  Stressed Rats, average amount of food consumed per rat: 0.97 g
  Control Rats, average amount of food consumed per rat: 1.03 g
Sprague-Dawley rats; stressed rats, 1-10 mg/kg
  stress-related eating: reduces stress-related eating

## COc1ccc(C(CN(C)C)C2(O)CCCCC2)cc1 (stereo not drawn) [venlafaxine hydrochloride]
obese, stressed patients [1]; patient ten, 75 rising to 150 mg/day, Month 1, baseline 8
  Mood Scores CES-D: 4
obese, stressed patients [1]; patient ten, 75 rising to 150 mg/day, Month 2, baseline 8
  Mood Scores CES-D: 6
obese, stressed patients [1]; patient ten, 75 rising to 150 mg/day, Month 3, baseline 8
  Mood Scores CES-D: 2
obese, stressed patients [1]; patient ten, 75 rising to 150 mg/day, Month 4, baseline 8
  Mood Scores CES-D: 2
obese, stressed patients [2]; patient ten, 75 rising to 150 mg/day, Month 1, baseline 10
  Appetite and Cravings: 6
obese, stressed patients [2]; patient ten, 75 rising to 150 mg/day, Month 2, baseline 10
  Appetite and Cravings: 7
obese, stressed patients [2]; patient ten, 75 rising to 150 mg/day, Month 3, baseline 10
  Appetite and Cravings: 3
obese, stressed patients [2]; patient ten, 75 rising to 150 mg/day, Month 4, baseline 10
  Appetite and Cravings: 1
obese, stressed patients [3]; patient ten, 75 rising to 150 mg/day, Month 1, baseline 14
  Emotional Triggers: 9
obese, stressed patients [3]; patient ten, 75 rising to 150 mg/day, Month 2, baseline 14
  Emotional Triggers: 4
obese, stressed patients [3]; patient ten, 75 rising to 150 mg/day, Month 3, baseline 14
  Emotional Triggers: 6
obese, stressed patients [3]; patient ten, 75 rising to 150 mg/day, Month 4, baseline 14
  Emotional Triggers: 2

## O=c1n(CCCN2CCN(c3cccc(Cl)c3)CC2)nc2ccccn12 [trazodone hydrochloride]
obese, stressed patients [1]; [8]
  Mood Scores CES-D: 16
obese, stressed patients [1]; [9]
  Mood Scores CES-D: 16
obese, stressed patients [1]; [10]
  Mood Scores CES-D: 10
obese, stressed patients [1]; [11]
  Mood Scores CES-D: 1
obese, stressed patients [2]; [8]
  Appetite and Cravings: 5
obese, stressed patients [2]; [9]
  Appetite and Cravings: 5
obese, stressed patients [2]; [10]
  Appetite and Cravings: 3
obese, stressed patients [2]; [11]
  Appetite and Cravings: 5
obese, stressed patients [3]; patient nine, 100 mg/day in divided doses, Month 1, baseline 12
  Emotional Triggers: 12
obese, stressed patients [3]; patient nine, 100 mg/day in divided doses, Month 2, baseline 12
  Emotional Triggers: 9
obese, stressed patients [3]; patient nine, 100 mg/day in divided doses, Month 3, baseline 12
  Emotional Triggers: 5
obese, stressed patients [3]; patient nine, 100 mg/day in divided doses, Month 4, baseline 12
  Emotional Triggers: 3
